Data taken from patent publication US5328912A (priority 1993, dated 1994).

Target: GABAa receptor
Assay: GABAa receptor binding assay (displacement of 3H-RO15-1788, rat cortical tissue homogenate)
Conditions: 3H-RO15-1788 0.5 nM, 30 min at 4° C., pH 7.4
Protocol: The pharmaceutical utility of compounds of this invention are indicated by the following assay for GABAa receptor activity.
Assays are carried out as described in Thomas and Tallman (J. Bio. Chem. 156: 9838-9842, J. Neurosci. 3: 433-440, 1983). Rat conical tissue is dissected and homogenized in 25 volumes (w/v) of 0.05M Tris HCl buffer (pH 7.4 at 4° C.). The tissue homogenate is centrifuged in the cold (4°) at 20,000× g for 20'. The supernatant is decanted and the pellet is rehomogenized in the same volume of buffer and again centrifuged at 20,000× g. The supernatant is decanted and the pellet is frozen at -20° C. overnight. The pellet is then thawed and rehomogenized in 25 volume (original wt/vol) of buffer and the procedure is carried out twice. The pellet is finally resuspended in 50 volumes (w/vol of 0.05M Tris HCl buffer (pH 7.4 at […]).
Incubations contain 100 μl of tissue homogenate 100 μl of radioligand 0.5 nM (^3 H-RO15-1788 specific activity 80 Ci/mmol), drug or blocker and buffer to a total volume of 500 μl. Incubations are carried for 30 min at 4° C. then are rapidly filtered through GFB filters to separate free and bound ligand. Filters are washed twice with fresh 0.05M Tris HCl buffer (pH 7.4 at 4° C.) and counted in a liquid scintillation counter. 1.0 μM diazepam is added to some tubes to determine nonspecific binding. Data are collected in triplicate determinations, averaged and % inhibition of total specific binding is calculated. Total Specific Binding=Total-Nonspecific. In some cases, the amounts of unlabeled drugs is varied and total displacement curves of binding are carried out. Data are convened to a form for the calculation of IC50 and Hill Coefficient (nH).

**Q.** For `CC(c1ccccc1)N1CCc2[nH]c(=O)n3cc(-c4ccccc4F)nc3c2C1` (racemic) [Compound 21, ±9-(α-Methylbenzyl)-2-(2-fluorophenyl)-7,8,9,10-tetrahydro-imidazo[1,2-c]pyrido[3,4-e] pyrimidin-5(6H)-one], which IC50 is on record?
**A.** Its IC50 is 4.8 nM.

**Q.** How did the IC50 turn out when `O=C(c1ccccc1)N1CCc2[nH]c(=O)n3cc(-c4ccccc4F)nc3c2C1` [Compound 1, 9-Benzoyl-2-(2-fluorophenyl)-7,8,9,10-tetrahydro-imidazo[1,2-c]pyrido[3,4-e]pyrimidin-5(6H)-one] was run?
**A.** The IC50 was 500 nM.

**Q.** Which IC50 does the source give for `O=c1[nH]c2c(c3nc(-c4ccccc4F)cn13)CN(Cc1ccccc1F)CC2` [Compound 13, 9-(2-Fluorobenzyl)-2-(2-fluorophenyl)-7,8,9,10-tetrahydro-imidazo[1,2-c]pyrido[3,4-e] pyrimidin-5(6H)-one] here?
**A.** The IC50 was 2.4 nM.

**Q.** How did the IC50 turn out when `O=c1[nH]c2c(c3nc(-c4cccc(Cl)c4)cn13)CN(Cc1ccccc1)CC2` [Compound 14, 9-Benzyl-2-(3-chlorophenyl)-7,8,9,10-tetrahydro-imidazo[1,2-c]pyrido[3,4-e] pyrimidin-5(6H)-one] was run?
**A.** Its IC50 is 100 nM.

**Q.** How did the IC50 turn out when `O=c1[nH]c2c(c3nc(-c4ccccc4F)cn13)CN(Cc1ccc(F)cc1)CC2` [Compound 22, 9-(4-Fluorobenzyl)-2-(2-fluorophenyl)-7,8,9,10-tetrahydro-imidazo[1,2-c]pyrido[3,4-e]pyrimidin-5(6H)-one] was run?
**A.** Its IC50 is 3.8 nM.

**Q.** Which IC50 does the source give for `CCC(=O)N1CCc2[nH]c(=O)n3cc(-c4ccccc4F)nc3c2C1` [Compound 36, 9-propionyl-2-(2-fluorophenyl)-7,8,9,10-tetrahydro-imidazo[1,2-c]pyrido[3,4-e]pyrimidin-5(6H)-one] here?
**A.** Its IC50 is 10 nM.

**Q.** Which IC50 does the source give for `O=C(OCc1ccccc1)N1CCc2[nH]c(=O)n3cc(-c4ccccc4F)nc3c2C1` [Compound 44, 9-Carbobenzyloxy-2-(2-fluorophenyl)-7,8,9,10-tetrahydro-imidazo[1,2-c]pyrido[3,4-e]pyrimidin-5(6H)-one] here?
**A.** Its IC50 is 10 nM.

**Q.** How did the IC50 turn out when `CN1CCc2[nH]c(=O)n3cc(-c4ccccc4F)nc3c2C1` [Compound 49, 9-Methyl-2-(2-fluorophenyl)-7,8,9,10-tetrahydro-imidazo[1,2-c]pyrido[3,4-e]pyrimidin-5(6H)-one] was run?
**A.** The IC50 was 30 nM.
